Laboratory results: patent US12030897B2, “Pyrrolo[2,1-f][1,2,4]triazine derivatives serving as selective HER2 inhibitors and application thereof” (MEDSHINE DISCOVERY INC., priority 2018, dated 2024)
Where “and” joins values, the source holds several entries; their conditions need not be identical. Identical values can stand only once.

Columns and labels:
HER4 (ErbB4) = HER4 (ErbB4) (Homo sapiens (Human), UniProt Q15303); assay: In vitro enzyme activity, HER4 (ErbB4), [γ-33P]ATP filter assay; assay type: biochemical
Sequence of HER4 (ErbB4) (Q15303 26-1308): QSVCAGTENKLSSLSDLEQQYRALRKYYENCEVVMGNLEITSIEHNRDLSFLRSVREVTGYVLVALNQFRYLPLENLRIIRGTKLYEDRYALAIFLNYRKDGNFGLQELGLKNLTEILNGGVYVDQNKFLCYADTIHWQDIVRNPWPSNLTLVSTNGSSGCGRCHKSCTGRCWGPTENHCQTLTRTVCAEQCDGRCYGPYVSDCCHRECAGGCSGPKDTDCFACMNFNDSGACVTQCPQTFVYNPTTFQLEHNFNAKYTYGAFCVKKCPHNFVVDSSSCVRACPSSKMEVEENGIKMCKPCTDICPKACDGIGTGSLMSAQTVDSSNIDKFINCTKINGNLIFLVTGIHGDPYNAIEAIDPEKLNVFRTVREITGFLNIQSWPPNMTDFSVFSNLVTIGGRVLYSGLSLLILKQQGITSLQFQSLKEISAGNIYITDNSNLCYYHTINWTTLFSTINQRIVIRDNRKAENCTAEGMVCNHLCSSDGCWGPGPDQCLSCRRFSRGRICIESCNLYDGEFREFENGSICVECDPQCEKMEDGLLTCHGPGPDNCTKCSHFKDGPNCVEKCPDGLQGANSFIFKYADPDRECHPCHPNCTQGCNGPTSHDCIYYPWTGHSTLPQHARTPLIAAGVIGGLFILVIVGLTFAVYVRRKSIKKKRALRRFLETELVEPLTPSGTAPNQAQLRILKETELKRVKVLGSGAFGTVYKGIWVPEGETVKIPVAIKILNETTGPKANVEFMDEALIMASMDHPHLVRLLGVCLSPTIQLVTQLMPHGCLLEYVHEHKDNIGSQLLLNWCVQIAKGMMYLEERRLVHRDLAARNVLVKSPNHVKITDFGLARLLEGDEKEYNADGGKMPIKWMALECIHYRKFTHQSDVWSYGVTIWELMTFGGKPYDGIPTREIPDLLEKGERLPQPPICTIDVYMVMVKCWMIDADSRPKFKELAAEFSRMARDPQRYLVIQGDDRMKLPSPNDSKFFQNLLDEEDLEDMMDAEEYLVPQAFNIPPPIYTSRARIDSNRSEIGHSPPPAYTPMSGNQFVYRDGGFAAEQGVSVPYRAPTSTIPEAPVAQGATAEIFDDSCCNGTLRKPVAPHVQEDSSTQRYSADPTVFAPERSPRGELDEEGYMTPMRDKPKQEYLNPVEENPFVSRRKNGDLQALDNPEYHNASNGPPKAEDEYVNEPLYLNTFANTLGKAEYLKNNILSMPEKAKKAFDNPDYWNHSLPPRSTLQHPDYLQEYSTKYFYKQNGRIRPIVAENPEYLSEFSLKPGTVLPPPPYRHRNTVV
Procedure: The object of this test is to detect the in vitro inhibitory activity of the compound against HER1 (ErbB1), HER2 (ErbB2) and HER4 (ErbB4). The enzymes used in this test were human ErbB1, ErbB2 and ErbB4. Eurofins Pharma Discovery Service provided the activity detection method, and the results of the inhibitory activity of the tested compound against HER1, HER2 and HER4 were shown in Table 1.
(§1) Experimental Steps and Methods (96-Well Plate):
(§2) 5-fold diluted tested compound buffer (5 μL), peptide substrate poly(Glu, Tyr) (4:1) (2.5 μL), ErbB (4-20 ng, 2.5 μL), MnCl2 (50 mM, 1.25 μL), dH2O (3.75 μL) and [γ-^33P]ATP (10 μL) were added, and incubated at 30° C. for 10 min. 3% phosphoric acid was added to terminate the reaction, and 10 μL of the specimen was transferred to Filtermate A. The filter was washed with 75 mM phosphoric acid for three times and methanol once, and transferred to a sealed plastic bag, and a scintillation fluid mixture (4 mL) was added, The intensity of the emitted photons was detected on the scintillation luminescence counter. The photon intensity of the enzyme sample was compared with the photon intensity of the internal control sample, and the level of photon intensity reflected the strength of the tyrosine kinase activity.

[1] = tested on: human gastric cancer NCI-N87 cell subcutaneous xenograft tumor; assay: In vivo efficacy, NCI-N87 subcutaneous xenograft tumor model; parameters: species or system BALB/c nude mice; settings: 100 mg/kg
Procedure: Experiment object: to study the efficacy of the tested compound on human gastric cancer NCI-N87 cell subcutaneous xenograft tumor in the BALB/c nude mouse model.
Experimental animals: female BALB/c nude mice, 6 to 8 weeks old, weight: 18 to 22 grams; Supplier: Shanghai Xipuer-Bikai Laboratory Animal Co., Ltd.
Human gastric cancer NCI-N87 cells were cultured in a monolayer in vitro, and the culture conditions were: RPMI-1640 medium with 10% fetal bovine serum, 100 U/mL penicillin, 100 μg/mL streptomycin and 2 mM glutamine, and 37° C., 5% CO2. Conventional digestion treatment with pancreatin-EDTA for passage was carried out twice a week. When the cell saturation was 80% to 90%, the cells were collected, counted and inoculated.
0.2 mL of (10×10^6) NCI-N87 cells were subcutaneously inoculated into the right back of each nude mouse (PBS:Matrigel=1:1). The grouping and administration were started when the average tumor volume reached 130 mm^3.
The tested compound was prepared as a 10 mg/mL solution, and the solvent was 10% NMP+10% ethylene glycol stearate+80% water.
The experimental index was to investigate whether the tumor growth was inhibited, delayed or cured. Tumor diameter was measured twice a week with a vernier caliper. the calculation formula of tumor volume: V=0.5a×b^2, wherein a and b represented the long and short diameters of the tumor, respectively.
The anti-tumor efficacy of the compound was evaluated by TGI (%) or relative tumor proliferation rate T/C (%). TGI (%) reflected the tumor growth inhibition rate.
relative tumor growth rate T/C (%): calculation formula was as follows: T/C %=TRTV/CRTV (TRTV: RTV of the treatment group; CRTV: RTV of the solvent control group). The relative tumor volume (RTV) was calculated according to the results of the tumor measurement. The calculation equation was RTV=Vt/V0, where V0 was the average tumor volume measured at beginning of the grouping and administration (i.e., d0), and Vt was the average tumor volume at the time of a certain measurement. TRTV and CRTV were obtained from the data on the same day.
Statistical analysis included mean value and standard error (SEM) of the tumor volume of each group at each time point. […] The comparison between two groups was analyzed by T-test, and the comparison between three or more groups was analyzed by one-way ANOVA.

CYP1A2 = CYP1A2 (Homo sapiens (Human), UniProt P05177); assay type: in vitro ADME; settings: microsomes
Sequence of CYP1A2 (P05177 whole entry): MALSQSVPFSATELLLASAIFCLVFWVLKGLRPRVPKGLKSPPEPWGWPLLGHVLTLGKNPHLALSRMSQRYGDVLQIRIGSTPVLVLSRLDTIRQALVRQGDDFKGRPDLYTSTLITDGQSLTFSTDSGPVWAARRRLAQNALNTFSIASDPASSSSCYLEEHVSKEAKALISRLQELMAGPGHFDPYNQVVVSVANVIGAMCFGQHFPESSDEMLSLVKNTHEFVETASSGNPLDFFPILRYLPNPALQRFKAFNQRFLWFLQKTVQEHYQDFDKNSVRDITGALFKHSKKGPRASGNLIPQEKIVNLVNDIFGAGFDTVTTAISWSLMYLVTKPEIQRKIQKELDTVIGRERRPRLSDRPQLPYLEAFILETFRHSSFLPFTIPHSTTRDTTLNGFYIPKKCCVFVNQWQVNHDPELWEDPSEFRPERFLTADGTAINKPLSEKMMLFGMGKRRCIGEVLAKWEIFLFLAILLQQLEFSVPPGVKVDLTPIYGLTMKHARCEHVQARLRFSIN
Procedure: (§3) The object of this study was to evaluate the effect of Example 4 on the activities of five isoenzymes (CYP1A2, CYP2C9, CYP2C19, CYP2D6 and CYP3A4) of human liver microsomal cytochrome P450 (CYP) using an in vitro test system. The specific probe substrates of CYP450 isozymes were incubated with human liver microsomes and different concentrations of Example 4, and reduced nicotinamide adenine dinucleotide phosphate (NADPH) was added to initiate the reaction. After the reaction was completed, the samples were treated, and liquid chromatography tandem mass spectrometry (LC/MS/MS) was used to detect the metabolites produced by specific substrates.

[2] = Pharmacokinetic properties in rats; assay type: in vivo; settings: male, SD
Procedure: The tested compound was dissolved in 10% NMP/10% polyethylene glycol-15-hydroxystearate/80% water, vortexed and sonicated to prepare a 2.5 mg/mL clear solution, which was filtered through a millipore filter for use. Three male SD rats were administered intravenously with the candidate compound solution at a dose of 5 mg/kg. The tested compound was dissolved in 10% polyethylene glycol-15-hydroxystearate/90% water (50 mM citrate buffer, pH 3.0), adjusted to pH of about 3.5, vortexed and sonicated to prepare a 5 mg/ml clear solution, which was filtered through a millipore filter for use. Three male SD rats were administered orally with the candidate compound solution at a dose of 50 mg/kg. The whole-blood for a certain period of time was collected to prepare plasma. The drug concentration was analyzed by the LC-MS/MS method, and the pharmacokinetic parameters were calculated by the Phoenix WinNonlin software (Pharsight, USA).

HER1 (ErbB1) = HER1 (ErbB1) (Homo sapiens (Human), UniProt P00533); assay: In vitro enzyme activity, HER1 (ErbB1), [γ-33P]ATP filter assay; assay type: biochemical
Sequence of HER1 (ErbB1) (P00533 25-1210): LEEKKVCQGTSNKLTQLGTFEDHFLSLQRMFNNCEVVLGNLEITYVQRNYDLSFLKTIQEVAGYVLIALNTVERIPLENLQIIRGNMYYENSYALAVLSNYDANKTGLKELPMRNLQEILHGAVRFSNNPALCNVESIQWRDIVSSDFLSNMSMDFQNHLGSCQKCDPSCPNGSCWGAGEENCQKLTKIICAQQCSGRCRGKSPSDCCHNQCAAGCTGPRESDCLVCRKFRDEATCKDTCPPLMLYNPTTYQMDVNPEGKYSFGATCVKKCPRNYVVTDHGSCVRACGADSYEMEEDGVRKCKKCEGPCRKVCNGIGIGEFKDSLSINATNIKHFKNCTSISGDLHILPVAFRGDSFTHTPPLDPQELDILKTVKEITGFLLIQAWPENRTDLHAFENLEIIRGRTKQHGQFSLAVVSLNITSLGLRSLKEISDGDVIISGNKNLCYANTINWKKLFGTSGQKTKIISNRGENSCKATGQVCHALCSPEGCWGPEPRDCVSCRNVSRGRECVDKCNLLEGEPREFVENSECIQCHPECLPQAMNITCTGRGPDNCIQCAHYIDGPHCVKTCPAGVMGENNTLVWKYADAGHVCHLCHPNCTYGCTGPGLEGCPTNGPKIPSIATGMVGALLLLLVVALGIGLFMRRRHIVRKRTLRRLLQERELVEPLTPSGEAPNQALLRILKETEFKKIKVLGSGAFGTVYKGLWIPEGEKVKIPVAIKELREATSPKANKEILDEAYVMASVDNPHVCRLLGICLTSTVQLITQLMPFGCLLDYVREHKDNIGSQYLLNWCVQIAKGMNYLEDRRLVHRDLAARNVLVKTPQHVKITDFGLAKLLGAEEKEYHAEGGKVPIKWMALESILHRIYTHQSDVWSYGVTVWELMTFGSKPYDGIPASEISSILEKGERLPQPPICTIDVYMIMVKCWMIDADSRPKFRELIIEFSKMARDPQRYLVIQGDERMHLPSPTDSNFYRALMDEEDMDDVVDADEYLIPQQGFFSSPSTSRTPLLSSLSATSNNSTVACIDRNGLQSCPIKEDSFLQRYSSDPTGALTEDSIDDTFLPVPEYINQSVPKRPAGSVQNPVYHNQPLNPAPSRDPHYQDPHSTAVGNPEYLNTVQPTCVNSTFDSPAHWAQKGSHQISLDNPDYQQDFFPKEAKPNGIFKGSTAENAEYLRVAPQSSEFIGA
Procedure: The object of this test is to detect the in vitro inhibitory activity of the compound against HER1 (ErbB1), HER2 (ErbB2) and HER4 (ErbB4). The enzymes used in this test were human ErbB1, ErbB2 and ErbB4.
as §1, §2

CYP2C19 = CYP2C19 (Homo sapiens (Human), UniProt P33261); assay: Inhibition of human liver microsomal cytochrome P450 isoenzyme CYP2C19; assay type: in vitro ADME; settings: human liver microsomes
Sequence of CYP2C19 (P33261 whole entry): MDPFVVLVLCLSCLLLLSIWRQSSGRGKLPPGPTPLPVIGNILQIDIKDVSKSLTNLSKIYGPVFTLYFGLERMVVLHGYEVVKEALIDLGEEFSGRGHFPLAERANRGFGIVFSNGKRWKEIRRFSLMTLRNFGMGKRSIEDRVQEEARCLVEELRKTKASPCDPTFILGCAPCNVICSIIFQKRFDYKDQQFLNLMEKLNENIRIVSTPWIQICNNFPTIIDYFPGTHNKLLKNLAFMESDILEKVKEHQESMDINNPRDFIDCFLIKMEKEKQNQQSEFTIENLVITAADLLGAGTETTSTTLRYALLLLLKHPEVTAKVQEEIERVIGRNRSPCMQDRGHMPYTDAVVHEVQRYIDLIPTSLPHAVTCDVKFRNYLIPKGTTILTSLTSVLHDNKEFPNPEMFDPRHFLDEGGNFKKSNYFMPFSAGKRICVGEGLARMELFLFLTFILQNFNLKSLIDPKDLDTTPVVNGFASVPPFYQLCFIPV
Procedure: as §3

## Cc1cc(Nc2ncnn3ccc(CN4CCC(N)CC4)c23)ccc1Oc1ccn2ncnc2c1 [Example 4]
HER4 (ErbB4)
  IC50: 156 nM
[1]
  body weight of the mice in the treatment group: decreased slightly
[1]; day 21
  T/C: 2.92%
  TGI: 112.13%
[1]; day 21, mean ± SEM
  Tumor volume (Day 21): 29 mm^3 and 29 ± 7 mm^3
CYP1A2
  IC50: > 50000 nM
[2]; plasma, rat, IV 5 mg/kg
  clearance: 25.4 mL/min/kg
[2]; plasma, rat, IV 5 mg/kg, read-out: Vdss
  Vd: 5.86 L/kg
[2]; plasma, rat, PO 50 mg/kg, read-out: F (oral bioavailability)
  bioavailability: 49.6%
[2]; rat plasma, IV 5 mg/kg
  AUC(0-inf): 6.95 µM·h
  AUC(0-t): 6.91 µM·h
  half-life: 3.34 h
[2]; rat plasma, PO 50 mg/kg
  AUC(0-inf): 34.9 µM·h
  AUC(0-t): 34.3 µM·h
  Cmax: 3.63 µM
  Tmax: 3.33 h
  half-life: 3.9 h
HER1 (ErbB1)
  IC50: 161 nM
CYP2C19
  IC50: 36100 nM
